{
  "source": "paper PMC11915509",
  "about": "“Small molecule inhibitors of hnRNPA2B1–RNA interactions reveal a predictable sorting of RNA subsets into extracellular vesicles” (Nucleic Acids Research, 2025)",
  "key": {"[1]": {"tested_on": "NSC34 cells", "assay": "Nanodrop quantification of total intracellular RNA after treatment", "type": "cell-based, mouse", "settings": "6 h treatment", "experimental": "RNA from cells was extracted using TRI Reagent® ([…], Sigma) following the manufacturer's instructions. Thermo Fisher Nanodrop 2000 Spectrophotometer was used to assess the purity and quantity of extracted RNA. RNA from EVs was extracted using Single Cell RNA Isolation Kit (51800, Norgen) following the manufacturer's protocol. The elution was in 10-20 μl of RNase-free water and the RNA profiling and quantification was assessed by Agilent 2100 Bioanalyzer and RNA 6000 Pico Kit (5067-1513). Cell- and EV-RNAs were also analysed with DNF-472 HS RNA (15 nt) Kit (Agilent Technologies, Santa Clara, CA), according to the manufacturer. Briefly, 2 μl of RNA samples concentrated within a range of 50-5000 pg/μl and RNA Ladder were added to Diluent Marker, denatured at 70°C for 2 min and loaded. Results were analysed with Agilent ProSize data analysis software, that allows the analysis of RNA size, concentration and quality. Through a Peak Analysis it was possible to access the concentration of each peak recognized by the software. Half a nanogram of extracted RNA from cells and EVs was used as input for complementary DNA (cDNA) synthesis. cDNA was produced using TaqManTM Advanced miRNA cDNA Synthesis Kit (Applied BiosystemsTM, A28007) following manufacturers' instructions and used for droplet digital polymerase chain reaction (PCR) experiments."}, "[2]": {"tested_on": "hnRNPA2B1 and TDP43 bound RNA (miR-221, miR-1910)", "assay": "RNA immunoprecipitation (RIP) on cytoplasmic lysates of treated NSC34 cells", "type": "cell-based, mouse", "settings": "6 h treatment, anti-hnRNPA2B1 and anti-TDP43 RIP", "experimental": "Flow cytometry of a fraction of RNA immunoprecipitation (RIP) experiments, consisting of RNA/protein-antibody-bead complexes, was performed on the same instrument using a sequential gating with Streptavidin beads alone ± antibodies (this signal corresponded to background). Pyronin Y (PY) was used at a final concentration of 50 ng/ml and the PY-positive events recorded for 1 min.\nApproximately 2 × 10^6 cells were used for each RIP experiment, performed as already described, without cross-linking steps and using 0.5 μg/ml of antibodies. Beads-precipitated samples were divided for immunoblotting or TRIzol-based RNA isolation. Densitometric analysis obtained using Image J software (v.1.54). miRNA TaqMan probes were bought from Thermo Fisher with the following codes: miR-221 (477 981), miR-1910 (479 581), and miR-126 (4 427 975)."}, "[3]": {"tested_on": "EXO-motif RNA probe", "assay": "Absorbance scan of compounds mixed with EXO-motif RNA", "type": "binding", "settings": "EXO-motif RNA probe, 1:5 micromolar ratio", "experimental": "(§1) Five μM RNA EXO motif were mixed with 25 μM compounds in AlphaBuffer (25 mM HEPES, pH 7.4, 100 mM NaCl, 0.01% BSA) to a final volume of 20 μl. Absorbance spectrum (200–530 nm) was measured using Tecan Spark® microplate reader with a NanoQuant plate at room temperature. In fluorescence indicator displacement (FID), a 2× final concentration of Midori green advanced (Resnova) was added to the samples and the melting curve measured using Bio-Rad CFX96™ System from 30°C to 90°C."}, "[4]": {"tested_on": "EV miR-221 from NSC34 cells", "assay": "ddPCR of miR-221-3p in NSC34-derived EV-RNA", "type": "cell-based, mouse", "settings": "NSC34-derived EVs, 6 h treatment", "experimental": "EVs were isolated from HEK293T, NSC34, and smNPC-derived motor neurons using nickel-based isolation (NBI) or differential ultracentrifugation (UC). NBI protocol was performed as already described. Briefly, after a first centrifugation step at 2800 × g for 10 min, nickel beads were incubated for 30 min with serum-free media collected from cells in a ratio of 25 μl of beads per ml of medium. After a 2 min centrifugation at 600 g, particles were eluted from the beads by adding 1× elution buffer made of Solution A [16 mM ethylenediaminetetraacetic acid (EDTA), UltraPure, pH 8.0, Thermo Fisher] and Solution B (10 mM NaCl, 225 μM citric acid, Sigma–Aldrich) diluted five times in phosphate-buffered saline (PBS). After 15 min incubation at 28°C in a thermoshaker, the EVs were retrieved by 1-min centrifugation at 1800 × g and subjected to the following characterization. NBI was used to recover polydisperse EVs and include the RNA contribution from these for reverse proteomics experiments. The EV-RNA for reverse proteomics was pooled from three consecutive EV isolation procedures performed on a total of 30 T75 flasks (10 flasks each) of NSC34 cells grown until 80% confluence under standard conditions before washing with PBS and incubating with serum-free medium with glutamine and antibiotics. Differential UC was applied as an alternative EV isolation protocol to confirm the detection of hnRNPA2B1 protein. UC was performed by a SW 32 Ti swinging bucket rotor in an Optima XPN-100 ultracentrifuge (Beckman Coulter, Brea, CA, USA). The cell-conditioned serum-free media, after the first centrifugation step at 2800 × g for 10 min, was put in open-top Ultra-Clear centrifuge tubes (Beckman Coulter-344058) and subjected to 100 000 × g (100 K) UC for 70 min at 4°C under vacuum, with or without an additional step at 10 000 × g (10 K) to first sediment larger particles. Then the supernatant was removed, and the pellet was resuspended in 0.22 μm filtered PBS. Differential UC alone, consisting of 2800 × g for 10 min and 100 000 × g for 70 min, was applied for experiments reported in Fig. 5. […]\nRNA from cells was extracted using TRI Reagent® (T9424, Sigma) following the manufacturer’s instructions. Thermo Fisher Nanodrop 2000 Spectrophotometer was used to assess the purity and quantity of extracted RNA. […] The elution was in 10–20 μl of RNase-free water and the RNA profiling and quantification was assessed by Agilent 2100 Bioanalyzer and RNA 6000 Pico Kit (5067-1513). Cell- and EV-RNAs were also analysed with DNF-472 HS RNA (15 nt) Kit (Agilent Technologies, Santa Clara, CA), according to the manufacturer. […] Results were analysed with Agilent ProSize data analysis software, that allows the analysis of RNA size, concentration and quality. […]"}, "[5]": {"molecular_target": "T1, hnRNPA2B1-EXOmotif interaction (Homo sapiens, UniProt P22626)", "T1 construct": "purified a human full-length, GST-tagged protein expressed in Escherichia coli cells; made in house; host or cells: E. coli BL21 (DE3)", "T1 sequence (P22626 whole entry)": "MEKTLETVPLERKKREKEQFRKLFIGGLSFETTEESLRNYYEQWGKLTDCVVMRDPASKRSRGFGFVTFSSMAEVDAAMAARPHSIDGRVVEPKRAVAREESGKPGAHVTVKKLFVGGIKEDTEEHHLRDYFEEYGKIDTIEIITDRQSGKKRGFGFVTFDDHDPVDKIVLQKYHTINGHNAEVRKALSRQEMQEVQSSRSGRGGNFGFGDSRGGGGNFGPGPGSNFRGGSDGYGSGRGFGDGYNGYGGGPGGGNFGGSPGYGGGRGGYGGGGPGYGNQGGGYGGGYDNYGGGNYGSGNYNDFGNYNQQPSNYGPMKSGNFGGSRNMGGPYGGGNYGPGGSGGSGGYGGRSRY", "assay": "AlphaScreen dose-response, inhibition of hnRNPA2B1-EXOmotif RNA interaction", "type": "binding", "settings": "AlphaScreen dose-response with RNA EXOmotif, one site fitting", "procedure": "The assays were performed in OptiPlate-384-well plates (PerkinElmer, 6007299) in 20 μl final volume. The ligands were diluted in AlphaBuffer [25 mM HEPES, pH 7.4, 100 mM NaCl, 0.01% bovine serum albumin (BSA)] and tested using AlphaScreen GST Detection Kit (PerkinElmer, 6760603C). […] For the reactions, 4 μl of the RNA probes were first added to the plate, then 16 μl of a mix containing all the other components was added, and the plate was incubated at room temperature for 1 h in the dark.\nThe high-throughput drug screening was performed in a total volume of 20 μl using 17 nM of RNA EXO motif (chosen below the hooking point), 30 nM GST-hnRNPA2B1, and 250 nM of compounds belonging to mass spectrometry (MS) Spectrum Collection library (MicroSource, 2000 compounds). Compounds were dispensed into white 384-well Optiplates (PerkinElmer) using Echo 650 acoustic dispenser (Beckman Coulter) followed by the addition of protein in Alpha Buffer using the EL460 dispenser (BioTek). After 15 min of incubation, RNA probes were added by Echo 650 acoustic dispenser, while Donor and Acceptor beads from the GST detection kit (Perkin Elmer) were dispensed by EL460 instrument. Following 60 min of incubation, Alpha signal was detected using Enspire plate reader instrument (PerkinElmer). The raw Alpha counts were normalized to Dimethyl sulfoxide (DMSO)-treated controls within every plate."}, "[6]": {"tested_on": "hnRNPA2B1 protein association with purine-rich RNA probe", "assay": "RNA pull-down with biotinylated EXOmotif probe after cell treatment, immunoblotting", "type": "cell-based, mouse", "settings": "NSC34 cells, 6 h, 5 μM compound", "experimental": "To prepare native protein lysates, 1–3 × 10^6 NSC34 cells were lysed in buffer R-Lysis [25 mM HEPES, pH 7.5, 100 mM NaCl, 1× protease inhibitor (Thermo Fisher, 78429)] and subjected to a water-bath sonication (35–40 amplitude, 6–7 cycles of 7 s on and 45 s off). After a centrifugation at 14 000 rpm for 20 min at 4°C, the supernatant was collected and 200 μg were incubated with 5 μl of buffer equilibrated Dynabeads^TM M-280 Streptavidin (Invitrogen, 11205D) for 15 min at 4°C in rotation to perform a pre-clearing step. After the magnetic separation, the pre-cleared lysate was incubated with 10 μl of 100 μM RNA biotinylated probes (or 400 ng of biotinylated EV-RNA) and incubated for 1 h at 4°C in rotation. Then, 5 μl/sample of beads were added and the sample were put again in rotation for 20 min at 4°C. […]\nCells were lysed in lysis buffer [50 mM Tris–HCl, pH 7.4, 150 mM NaCl, 1 mM EDTA, 0.25% NP-40, 0.1% Triton X-100, 0.1% sodium dodecyl sulphate, 1× protease inhibitor (Thermo Fisher, 78429)]. […] The signal was measured with Amersham ECL HRP-Conjugated Antibodies (Cytiva) using BioRad Chemidoc XRS+."}, "[7]": {"tested_on": "EXO-motif RNA", "assay": "Fluorescence indicator displacement (FID) melting curve, EXO-motif RNA", "type": "binding", "settings": "5 μM RNA, 25 μM compound, Midori green", "experimental": "as §1"}, "[8]": {"molecular_target": "T2, GST-hnRNPA2B1 (Homo sapiens, UniProt P22626 1-353)", "T2 sequence (P22626 whole entry)": "as above", "assay": "AlphaScreen kinetics (koff/kon); 30 nM protein; kon 523664 M-1 min-1, koff 0.02091 min-1; AlphaScreen: 25 mM HEPES pH 7.4, 100 mM NaCl, 0.01% BSA, RT 1 h; REMSA: 20 mM HEPES pH 7.5, 50 mM KCl, 0.5 ug BSA, 0.25% glycerol, RT; pull-down: 25 mM HEPES pH 7.5, 100 mM NaCl, 4 C", "settings": "protein: recombinant; tags: N-terminal GST (pGEX-6P-1); label: 5'-biotin-TEG; single strand; weak predicted secondary structure (-0.5 kcal/mol)"}, "[9]": {"molecular_target": "T2, GST-hnRNPA2B1", "assay": "AlphaScreen saturation binding; AlphaScreen: 25 mM HEPES pH 7.4, 100 mM NaCl, 0.01% BSA, RT 1 h; REMSA: 20 mM HEPES pH 7.5, 50 mM KCl, 0.5 ug BSA, 0.25% glycerol, RT; pull-down: 25 mM HEPES pH 7.5, 100 mM NaCl, 4 C", "settings": "protein: recombinant; tags: N-terminal GST (pGEX-6P-1); label: 5'-biotin-TEG; single strand; weak predicted secondary structure (-0.5 kcal/mol)"}, "[10]": {"molecular_target": "T2, GST-hnRNPA2B1", "assay": "AlphaScreen saturation binding; near-background counts; AlphaScreen: 25 mM HEPES pH 7.4, 100 mM NaCl, 0.01% BSA, RT 1 h; REMSA: 20 mM HEPES pH 7.5, 50 mM KCl, 0.5 ug BSA, 0.25% glycerol, RT; pull-down: 25 mM HEPES pH 7.5, 100 mM NaCl, 4 C", "settings": "protein: recombinant; tags: N-terminal GST (pGEX-6P-1); label: 5'-biotin-TEG; single strand"}},
  "note": "Where “and” joins values, the source holds several entries; their conditions need not be identical. Identical values can stand only once. Counter-ions that a name gives are not always drawn.",
  "data": [
    {"molecule": "CC(C)=CC1C(C(=O)OCc2cccc(Oc3ccccc3)c2)C1(C)C", "note": "(centres unmarked) [P, phenotrin]", "values": [
      {"measurement": "accumulation of intracellular RNAs", "setting": "[1]", "result": "significantly higher"},
      {"measurement": "percentage of bound targets (miR-221, miR-1910)", "setting": "[2]", "result": "significantly reduced"},
      {"measurement": "spectroscopic changes at 230 nm", "setting": "[3]", "result": "main spectroscopic changes"},
      {"measurement": "vesicular miR-221, copy number normalized on Y3 RNA and DMSO", "setting": "[4]", "result": "vesicular depletion"},
      {"measurement": "IC50", "setting": "[5]", "result": "~120 nM and 122 nM"}
    ]},
    {"molecule": "O=C(O)C1=CC(=C(c2ccc(O)c(C(=O)O)c2)c2ccc(O)c(C(=O)O)c2)C=CC1=O", "note": "[ATA, aurin tricarboxylic Acid, reference compound]", "values": [
      {"measurement": "IC50", "setting": "[5]", "result": "~250 nM and 250 nM"}
    ]},
    {"molecule": "O=C(O[C@@H]1Cc2c(O)cc(O)cc2O[C@@H]1c1cc(O)c(=O)c2c(O)c(O)cc([C@H]3Oc4cc(O)cc(O)c4C[C@H]3OC(=O)c3cc(O)c(O)c(O)c3)c2c1)c1cc(O)c(O)c(O)c1", "note": "[TD, theaflavin digallate]", "values": [
      {"measurement": "vesicular miR-221, copy number normalized on Y3 RNA and DMSO", "setting": "[4]", "result": "vesicular depletion"}
    ]},
    {"molecule": "C=C1c2cccc(O)c2C(=O)C2=C(O)[C@]3(O)C(=O)C(C(N)=O)=C(O)[C@@H](N(C)C)[C@@H]3[C@@H](O)[C@H]12", "note": "[MH, methacycline hydrochloride, reference compound]", "values": [
      {"measurement": "association of hnRNPA2B1 protein with exogenous purine-rich RNA probe", "setting": "[6]", "result": "most effective"},
      {"measurement": "vesicular miR-221, copy number normalized on Y3 RNA and DMSO", "setting": "[4]", "result": "vesicular depletion"},
      {"measurement": "IC50", "setting": "[5]", "result": 100, "unit": "nM"}
    ]},
    {"molecule": "neomycin [reference compound]", "values": [
      {"measurement": "thermal shift of the EXO-motif RNA", "setting": "[7]", "result": 6.3, "unit": "°C"}
    ]},
    {"molecule": "GGGGAGGUUAGGGAGGAGGGGGGUAGGCGCC (ssRNA)", "note": "[EXOmotif RNA (biotin)]", "values": [
      {"measurement": "Kd", "setting": "[8]", "result": "40 ± 3", "unit": "nM"},
      {"measurement": "Kd", "setting": "[9]", "result": "3.4 ± 1.6", "unit": "nM"}
    ]},
    {"molecule": "AGGACUGC (ssRNA)", "note": "[RNA 276]", "values": [
      {"measurement": "binding result", "setting": "[10]", "result": "no binding"}
    ]}
  ]
}
